Data on one molecule can be found in patent publication US20260240810A1, “COMPOSITIONS AND METHODS FOR REDUCING ADVERSE SIDE EFFECTS IN CANCER TREATMENT” (priority 2022, published 2026).

For data set [1], the system named is squamous cell carcinoma of the oral cavity or oropharynx. The data set is described as follows: PREVLAR trial: tumor response and cancer recurrence. The format is in vivo, human. An excerpt:
Referring to FIG. 6, FIG. 6 is a table 600 showing various incidences of outcomes for patients in Arm 4 of the PREVLAR study vs. patients in Arms 1, 2, and 3 of the PREVLAR study. The various outcomes include a complete response (CR), a partial response (PR), a CR or PR, not evaluable (NE), and missing. […] Thus, administration of RRx-001 was correlated to better outcomes.
Referring to FIG. 10, FIG. 10 is a bar graph 1000 showing a percentage of less cancer recurrence in RRx-001 treated patients. Accordingly, a higher percentage is correlated to the better outcome of lower cancer recurrence. […] Patients in Arm 4 had the lowest percentage drop of 30.8% of cancer recurrence.
The treatment phase commenced 2 weeks before the start of CRT and continued until the LDRT. The short-term follow-up stage started the day after LDRT and continued until complete resolution of ulcerative OM (World Health Organization (WHO) grade≤1 or 6 weeks after the LDRT, whichever came first). Long-term follow-up was performed to assess tumor response for 12 months after the LDRT. OM was assessed twice weekly beginning on the first day of CRT and continuing to resolution of ulcerative OM by trained evaluators using a standardized data collection tool.

Data set [2] deals with oral mucositis induced by acute radiation in hamsters. Nature of the data set: Oral mucositis induced by acute radiation in hamsters. It is filed as in vivo, Golden Hamsters. As for the experimental part: Referring to FIG. 11, FIG. 11 is a table 1100 showing a study design for an assessment of RRx-001 for the treatment of oral mucositis induced by acute radiation in hamsters. Mucositis was induced in 56 male Golden Hamsters via an acute radiation dose of 40 Gy directed to their left buccal cheek pouch. RRX-001 was administered with a vehicle comprising a 1:2 vol; vol ratio of N,N-Dimethylacetamide/40% Polyethylene Glycol (DMA:PBG). […] Otherwise, dosing was administered according to the “Dose Schedule” column of the table 1100. The study lasted 28 days. Mucositis was evaluated in hamsters from day 6 through day 28.
Starting at day 6 of the study and continuing every second day thereafter (day 8, 10, 12, 14, 16, 18, 20, 22, 24, 26, and 28), the hamsters were photographed and evaluated for mucositis scoring. The hamsters were anesthetized and the left pouch everted to evaluate a score each hamster based on a severity of mucositis. The scores, on a scale of 0-5, are defined as follows: • “0” means a pouch is completely healthy. • “1” means light to […] erythema and vasodilation and no erosion of mucosa. • “2” means severe erythema and vasodilation. Erosion of superficial aspects of mucosa leaving denuded areas. Decreased stippling of mucosa. • “3” means formation of off-white ulcers in one or more places. Ulcers may have a yellow/gray color due to pseudomembrane. Cumulative size of ulcers should equal less than or equal to ¼ of the pouch. Severe erythema and vasodilation. • “4” means a cumulative seize of ulcers should equal about ½ of the pouch. Loss of pliability. Severe erythema and vasodilation. • “5” means virtually all of pouch is ulcerated. Loss of pliability (pouch can only partially be extracted from mouth).
FIG. 15B is a bar graph 1550 showing a percent of cumulative animal days with mucositis scores greater than or equal to 3 for days 6-28. Statistical significance of the observed differences was calculated using chi-squared analysis.
FIG. 16B is a bar graph 1650 showing a percent of cumulative animal days with mucositis scores greater than or equal to 3 for days 6-28. Statistical significance of the observed differences was calculated using chi-squared analysis.
Referring to FIG. 18, FIG. 18 is a table 1800 showing a percent of hamsters with ulceration by day with mucositis scores of greater than or equal to 3. Each data point represents a percentage of hamsters in each group on a day that had both a mucositis score of 3 or greater and open ulcers. Like FIGS. 17A and 17B, horizontal shading denotes a decrease in mucositis scores and vertical shading denotes an increase in mucositis scores.

The conditions of data set [3]: pharmacokinetic data, J. Scicinski et al. 2011; cited from earlier work.

“And” between values parts separate entries of the source, which are not always exact repeats. Equal entries are not always repeated.

With `O=C(CBr)N1CC([N+](=O)[O-])([N+](=O)[O-])C1` [RRx-001, 2-bromo-1-(3,3-dinitroazetidin-1-yl) ethan-1-one], the “percentage drop of cancer recurrence” value in data set [1] (Arm 1) is listed as 50%; in data set [1] (Arm 2), 53.8%; in data set [1] (Arm 3), 76.9%. Also, in data set [1] (patients in Arms 1, 2, or 3), the “incidence of either CR or PR” value amounted to 65.7%. Moreover, in data set [1] (patients that received RRx-001 in Arms 1, 2, or 3), the “incidence of complete response (CR)” value turned out to be 48.6%. Further, the “percent of hamsters with ulceration (mucositis score ≥3)” value in data set [2] (day 12, group 2 (10 mg/kg, discontinued after day 1)) is recorded as 40%; in data set [2] (day 28, group 2 (10 mg/kg, discontinued after day 1)), 40%; in data set [2] (day 28, group 5 (10 mg/kg, discontinued after day 1)) it was 57.1%; in data set [2] (day 28, groups 3 and 6 (3 mg/kg)), 75.0%; in data set [2] (day 28, groups 4 and 7 (1 mg/kg)), 62.5%. The “mean daily mucositis score” value is reported as “approximately 2.2” in data set [2] (day 28, group 2 (10 mg/kg, dosing discontinued after day 1)); “approximately 2.7” in data set [2] (day 28, group 3 (3 mg/kg)); “approximately 2.6” in data set [2] (day 28, group 5 (10 mg/kg, dosing discontinued after day 1)); “approximately 2.7” in data set [2] (day 28, group 6 (3 mg/kg)). The “percent of cumulative animal days with mucositis score greater than or equal to 3” value is 63.54% in data set [2] (days 6-28, group 3 (3 mg/kg)); 53.45% and 63.54% in data set [2] (days 6-28, group 6 (3 mg/kg), 3 mg/kg). Also, in data set [2] (groups 2 and 5 (10 mg/kg)), the body weight change result is on record as “initially lost weight, but rebounded”. In data set [2] (groups 2 and 5 (10 mg/kg)), the tolerability of dosing entry is “discontinued after day 1 due to adverse side effects”. Moreover, the “half-life of RRx-001” value in data set [3] was “under an hour”.
